Experimental data published in patent US6498174B1, “Substituted oxazoles and thiazoles derivatives as hPPARγ and hPPARα activators” (SmithKline Beecham Corporation, priority 1998, dated 2002).

What follows are compounds tested on Male Zucker Diabetic Fatty rats (assay: In vivo evaluation in Zucker Diabetic Fatty rats). Details: oral gavage b.i.d., 7 days, percent reduction from vehicle control at day 7 relative to normalization (plasma glucose 140 mg/dL).
Parameters: species or system rat
Description: Male Zucker Diabetic Fatty rats were lightly anesthetized with isofluorane gas and bleed by tail vein to obtain postprandial baseline concentrations for plasma glucose, serum lipids and insulin. Animals were baseline matched by plasma glucose and randomized into vehicle or treatment groups with compound administration by oral gavage, b.i.d., beginning at 8.5 weeks of age. Selected compounds were administered as a suspension in 0.5% methylcellulose for 7 consecutive days. Changes in body weight and food consumption were monitored from representative animals from each group, over a 48 hr period. After 7 days of treatment animals were anesthetized, blood samples obtained and analyzed for plasma glucose and lactate, serum triglyceride, total and HDL cholesterol, non-esterified free fatty acids and insulin concentration. Livers were weighed and corrected for body weight. Values in Table 1 for % Glucose reduction represent a summary of the percent reduction from vehicle control animals at day 7 relative to normalization defined in this model as plasma glucose levels of 140 mg/dL.

| SMILES | % Glucose Reduction [%] |
| --- | --- |
| C/C(=C/C(=O)c1ccccc1)N[C@@H](Cc1ccc(OCCc2nc(-c3ccccc3)oc2C)cc1)C(=O)O [Example 1, (2S)-2{[(Z)-1-methyl-3-oxo-3-phenyl-1-propenyl]amino}-3-{4-[2-(5-methyl-2-phenyl-1,3-oxazol-4-yl)ethoxy]phenyl}propanoic acid] | 39 |
| C/C(=C/C(=O)c1ccccc1)N[C@@H](Cc1ccc(OCCc2nc(-c3ccc(C(F)(F)F)cc3)oc2C)cc1)C(=O)O [Example 7, (2S)-2-{[(Z)-1-methyl-3-oxo-3-phenyl-1-propenyl]amino}-3-[4-(2-{5-methyl-2-[4-(trifluoromethyl)phenyl]-1,3-oxazol-4-yl}ethoxy)phenyl]propanoic acid] | 34 |
| C/C(=C/C(=O)c1ccc(F)c(F)c1F)N[C@@H](Cc1ccc(OCCc2nc(-c3ccccc3)oc2C)cc1)C(=O)O [Example 12, (2S)-2-{[(Z)-1-methyl-3-oxo-3-(2,3,4-trifluorophenyl)-1-propenyl]amino}-3-{4-[2-(5-methyl-2-phenyl-1,3-oxazol-4-yl)ethoxy]phenyl}propanoic acid] | 61 |
| C/C(=C/C(=O)c1cc(F)c(F)cc1F)N[C@@H](Cc1ccc(OCCc2nc(-c3ccccc3)oc2C)cc1)C(=O)O [Example 16, (2S)-2-{[(Z)-1-methyl-3-oxo-3-(2,4,5-trifluorophenyl)-1-propenyl]amino}-3-{4-[2-(5-methyl-2-phenyl-1,3-oxazol-4-yl)ethoxy]phenyl}propanoic acid] | 59 |
| CC/C(=C/C(=O)c1ccccc1)N[C@@H](Cc1ccc(OCCc2nc(-c3ccccc3)oc2C)cc1)C(=O)O [Example 20, (2S)-2-{[(Z)-1-ethyl-3-oxo-3-phenyl-1-propenyl]amino}-3-{4-[2-(5-methyl-2-phenyl-1,3-oxazol-4-yl)ethoxy]phenyl}propanoic acid] | 50 |
| Cc1sc(-c2ccc(F)cc2)nc1CCOc1ccc(C[C@H](N/C(=C\C(=O)c2ccccc2)C(F)(F)F)C(=O)O)cc1 [Example 21, (2S)-3-(4-{2-[2-(4-fluorophenyl)-5-methyl-1,3-thiazol-4-yl]ethoxy}phenyl)-2-{[(Z)-3-oxo-3-phenyl-1-(trifluoromethyl)-1-propenyl]amino}propanoic acid] | 82 |
| CC/C(=C/C(=O)c1ccc(C(F)(F)F)cc1)N[C@@H](Cc1ccc(OCCc2nc(-c3ccc(F)cc3)sc2C)cc1)C(=O)O [Example 22, (2S)-2-({(Z)-1-ethyl-3-oxo-3-[4-(trifluoromethyl)phenyl]-1propenyl}amino)-3-(4-{2-[2-(4-fluorophenyl)-5-methyl-1,3-thiazol-4-yl]ethoxy}phenyl)propanoic acid] | 49 |
| CCCC/C(=C/C(=O)c1ccccc1)N[C@@H](Cc1ccc(OCCc2nc(-c3ccccc3)oc2C)cc1)C(=O)O [Example 23, (2S)-2-{[(Z)-1-butyl-3-oxo-3-phenyl-1-propenyl]amino}-3-{4-[2-(5-methyl-2-phenyl-1,3-oxazol-4-yl)ethoxy]phenyl}propanoic acid] | 86 |
| C/C(=C/C(=O)c1ccc(Cl)cc1)N[C@@H](Cc1ccc(OCCc2nc(-c3ccccc3)oc2C)cc1)C(=O)O [Example 24, (2S)-2-{[(Z)-3-(4-chlorophenyl)-1-methyl-3-oxo-1-propenyl]amino}-3-{4-[2-(5-methyl-2-phenyl-1,3-oxazol-4-yl)ethoxy]phenyl}propanoic acid] | 45 |
| CCC/C(=C/C(=O)c1ccccc1)N[C@@H](Cc1ccc(OCCc2nc(-c3ccccc3)oc2C)cc1)C(=O)O [Example 40] | 79 |
| Cc1oc(-c2ccccc2)nc1CCOc1ccc(C[C@H](N/C(=C\C(=O)c2ccccc2)C(F)(F)F)C(=O)O)cc1 [Example 48, (2S)-3-{4-[2-(5-methyl-2-phenyl-1,3-oxazol-4-yl)ethoxy]phenyl}-2{[(Z)-3-oxo-3-phenyl-1-(trifluoromethyl)-1-propenyl]amino}propanoic acid] | 81 |
